Laboratory results from US7348413B2, “Cancerous disease modifying antibodies” (Arius Research Inc., priority 2004, dated 2008).

Tested on: PC-3, LnCap and CCD-27sk
Details: 5 days
Description: In conjunction with testing for antibody binding the cytotoxic effect of the hybridoma supernatants were tested in the same cell lines: PC-3, LnCap and CCD-27sk. The Live/Dead cytotoxicity assay was obtained from Molecular Probes (Eu, OR). The assays were performed according to the manufacturer's instructions with the changes outlined below. Cells were plated before the assay at the predetermined appropriate density. After 2 days, 100 μl of supernatant from the hybridoma microtitre plates were transferred to the cell plates and incubated in a 5 percent CO2 incubator for 5 days. […] After 5 days of treatment, the plates were then emptied by inverting and blotting dry. Room temperature DPBS (Dulbecco's phosphate buffered saline) containing MgCl2 and CaCl2 was dispensed into each well from a multichannel squeeze bottle, tapped 3 times, emptied by inversion and then blotted dry. 50 μl of the fluorescent calcein dye diluted in DPBS containing MgCl2 and CaCl2 was added to each well and incubated at 37° C. in a 5% CO2 incubator for 30 minutes. The plates were read in a Perkin-Elmer HTS7000 fluorescence plate reader and the data was analyzed in Microsoft Excel.

SMILES	cytotoxicity of positive controls
[N-]=[N+]=[N-] [NaN3, sodium azide]	generally produced cytotoxicity as expected
C[C@@H]1C[C@@H]([C@H](O)CC2CC(=O)NC(=O)C2)C(=O)[C@@H](C)C1 [cycloheximide]	generally produced cytotoxicity as expected
